Consider eight compounds from patent publication US8822500B2, “Tyrosine kinase inhibitors” (Chembridge Corporation, priority 2008, dated 2014).

In one series the target is ALK (Homo sapiens (Human), UniProt Q9UM73). As to the kind of experiment: In vitro kinase activity assay (LANCE TR-FRET). The format is biochemical. Conditions: read-out: ALK (nM) IC50. For orientation: Time-resolved FRET reads energy transfer from a long-lived donor to a nearby acceptor.
Another series addresses TrkA (Homo sapiens (Human), UniProt P04629). As to the kind of experiment: In vitro kinase activity assay (LANCE TR-FRET). To be noted: read-out: TrkA (nM) IC50. It counts as biochemical.
In the next series the test system is K299 lymphoma cells. The experiment in a line: Cellular assay, 3 day cell viability (WST-1). It counts as cell-based. Conditions: 72 h, 3 days, read-out: GTx-K299 IC50. (Tetrazolium dyes change colour on reduction, which living cells bring about.)
A further series deals with U937 lymphoma cells. As to the kind of experiment: Cellular assay, 3 day cell viability (WST-1). It counts as cell-based. To be noted: Homo sapiens, U-937, 72 h; 3 days, WST-1; read-out: GTx-U937 IC50.
In the next series the test system is SUDHL-1 lymphoma cells. The experiment in a line: Cellular assay, 3 day cell viability (WST-1). It counts as cell-based. Conditions: Homo sapiens, SU-DHL-1, 72 h; 3 days, WST-1; read-out: GTx-SUDHL-1 IC50.
A short description of series [1]: in vitro. To be noted: human, microsomes.
Series [2] is described as follows: in vitro. To be noted: rat, microsomes.
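For ALK (nM) IC50 in this document: kinase reactions with ATP and a poly-GT peptide substrate, phosphorylated product read by time-resolved FRET, 11-point curve from 10^−11 to 10^−5 M, DMSO as negative control.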
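For TrkA (nM) IC50 in this document: kinase reaction with poly-GT peptide substrate and ATP, phosphorylated product quantified by time-resolved FRET, eleven-point dose curves from 10^−11 to 10^−5 M in triplicate, DMSO as negative control.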

Chain of TrkA (P04629 33-796): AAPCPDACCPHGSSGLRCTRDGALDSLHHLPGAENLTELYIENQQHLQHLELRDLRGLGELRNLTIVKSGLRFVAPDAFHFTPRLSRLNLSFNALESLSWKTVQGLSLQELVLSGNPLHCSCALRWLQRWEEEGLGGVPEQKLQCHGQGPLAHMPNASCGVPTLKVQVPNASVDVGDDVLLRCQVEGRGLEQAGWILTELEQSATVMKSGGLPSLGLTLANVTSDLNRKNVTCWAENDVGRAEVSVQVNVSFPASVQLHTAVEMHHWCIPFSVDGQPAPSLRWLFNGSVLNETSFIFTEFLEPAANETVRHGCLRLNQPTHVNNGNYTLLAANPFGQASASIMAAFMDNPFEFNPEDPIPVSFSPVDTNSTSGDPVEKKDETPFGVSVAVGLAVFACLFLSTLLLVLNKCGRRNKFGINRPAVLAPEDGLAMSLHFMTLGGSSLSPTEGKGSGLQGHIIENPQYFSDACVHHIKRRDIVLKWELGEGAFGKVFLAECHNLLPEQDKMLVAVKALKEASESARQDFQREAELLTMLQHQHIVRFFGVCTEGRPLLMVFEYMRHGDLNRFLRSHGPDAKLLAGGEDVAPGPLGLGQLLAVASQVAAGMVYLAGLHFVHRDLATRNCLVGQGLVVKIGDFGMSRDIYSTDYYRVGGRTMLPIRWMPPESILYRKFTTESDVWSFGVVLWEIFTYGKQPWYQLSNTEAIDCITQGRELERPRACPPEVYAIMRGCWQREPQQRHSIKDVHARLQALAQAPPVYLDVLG
Chain of ALK (Q9UM73 19-1620): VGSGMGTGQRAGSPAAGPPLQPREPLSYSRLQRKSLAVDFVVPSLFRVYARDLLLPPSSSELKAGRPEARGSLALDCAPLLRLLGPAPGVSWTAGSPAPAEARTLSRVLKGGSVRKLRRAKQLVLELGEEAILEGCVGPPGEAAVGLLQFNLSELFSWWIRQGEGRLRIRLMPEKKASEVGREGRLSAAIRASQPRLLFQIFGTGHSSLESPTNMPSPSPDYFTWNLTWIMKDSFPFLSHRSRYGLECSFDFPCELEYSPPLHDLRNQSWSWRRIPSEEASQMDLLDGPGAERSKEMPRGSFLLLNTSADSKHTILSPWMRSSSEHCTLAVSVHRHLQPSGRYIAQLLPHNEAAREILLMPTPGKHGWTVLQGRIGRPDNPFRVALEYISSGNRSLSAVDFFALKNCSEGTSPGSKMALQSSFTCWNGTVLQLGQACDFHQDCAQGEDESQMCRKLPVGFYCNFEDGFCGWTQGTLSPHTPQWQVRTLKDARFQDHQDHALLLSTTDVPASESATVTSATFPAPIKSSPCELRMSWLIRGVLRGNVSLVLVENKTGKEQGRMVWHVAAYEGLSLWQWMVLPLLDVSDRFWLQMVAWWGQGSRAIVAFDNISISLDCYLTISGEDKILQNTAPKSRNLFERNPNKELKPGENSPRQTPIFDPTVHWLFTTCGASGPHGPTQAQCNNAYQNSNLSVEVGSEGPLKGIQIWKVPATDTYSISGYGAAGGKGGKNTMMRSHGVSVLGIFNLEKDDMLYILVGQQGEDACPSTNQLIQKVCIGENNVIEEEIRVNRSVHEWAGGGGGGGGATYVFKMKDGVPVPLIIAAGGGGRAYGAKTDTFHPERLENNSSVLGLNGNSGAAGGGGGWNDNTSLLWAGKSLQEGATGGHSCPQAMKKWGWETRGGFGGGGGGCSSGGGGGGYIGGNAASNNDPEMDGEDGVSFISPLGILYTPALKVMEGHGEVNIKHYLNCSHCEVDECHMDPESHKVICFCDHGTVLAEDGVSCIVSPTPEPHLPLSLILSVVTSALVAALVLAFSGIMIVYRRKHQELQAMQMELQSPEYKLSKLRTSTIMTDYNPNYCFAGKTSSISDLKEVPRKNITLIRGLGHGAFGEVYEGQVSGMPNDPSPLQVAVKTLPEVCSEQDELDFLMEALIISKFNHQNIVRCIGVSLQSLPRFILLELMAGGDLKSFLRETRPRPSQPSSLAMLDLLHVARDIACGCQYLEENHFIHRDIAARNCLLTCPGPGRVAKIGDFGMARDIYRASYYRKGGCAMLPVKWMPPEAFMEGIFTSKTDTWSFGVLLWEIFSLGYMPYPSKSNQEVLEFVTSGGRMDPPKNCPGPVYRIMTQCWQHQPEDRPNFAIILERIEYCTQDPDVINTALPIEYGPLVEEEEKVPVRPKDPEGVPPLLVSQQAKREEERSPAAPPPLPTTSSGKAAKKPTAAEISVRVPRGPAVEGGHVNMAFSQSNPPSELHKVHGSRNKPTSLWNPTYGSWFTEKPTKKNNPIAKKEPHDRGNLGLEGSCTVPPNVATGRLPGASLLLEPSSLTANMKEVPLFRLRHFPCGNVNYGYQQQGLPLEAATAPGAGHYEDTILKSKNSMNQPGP

In the case of `C[C@@H](Cc1cc(F)cc(F)c1F)Nc1cc[nH]c(=O)c1-c1nc2cc3c(cc2[nH]1)C(=O)N([C@@H](C)Cc1cc(F)cc(F)c1F)C3=O` (stereo in doubt) [Compound 40, 2-(2-oxo-4-(1-(2,3,5-trifluorophenyl)propan-2-ylamino)-1,2-dihydropyridin-3-yl)-6-(1-(2,3,5-trifluorophenyl)propan-2-yl)imidazo[4,5-f]isoindole-5,7(1H,6H)-dione], the IC50 (usually the midpoint of a concentration-inhibition curve) on ALK is greater than 10000 nM; on TrkA it was greater than 10000 nM; in the series on K299 lymphoma cells, greater than 10 µM; with U937 lymphoma cells, greater than 10 µM; in the series with SUDHL-1 lymphoma cells, greater than 10 µM.
Take `CC(Cc1cc(F)ccc1F)Nc1cc[nH]c(=O)c1-c1nc2cc3c(cc2[nH]1)C(=O)N(CCN(C)C)C3=O` (stereo not drawn) [Compound 17, 2-(4-(1-(2,5-Difluorophenyl)propan-2-ylamino)-2-oxo-1,2-dihydropyridin-3-yl)-6-(2-(dimethylamino)ethyl)imidazo[4,5-f]isoindole-5,7(1H,6H)-dione]: the IC50 stood at 38.9 nM at ALK and 17.5 nM on TrkA. Further, the microsomal CLint – broadly, the rate of metabolic loss divided by the concentration – at 0.5 μM in “in vitro [1]” (pH 7.4, Human LM-P1 CL (ul/min/mg)) turned out to be 8.77 µL/min/mg; in the series “in vitro [2]” (pH 7.4, Rat LM-P1 CL (ul/min/mg)) it was 27.1 µL/min/mg. The half-life (as a rule, how long it takes for the measured level to halve) at 0.5 μM in the series “in vitro [1]” (pH 7.4, Human LM-P1 Half-life (min)) is 79.1 min; in “in vitro [2]” (pH 7.4) it was 25.6 min.
For the compound `Cc1c2c(cc3[nH]c(-c4c(NC(C)Cc5c(F)c(F)cc(F)c5F)cc[nH]c4=O)nc13)CN(C1CCN(C)CC1)C2=O` (stereo not drawn) [Compound 24, 4-Methyl-6-(1-methylpiperidin-4-yl)-2-(2-oxo-4-(1-(2,3,5,6-tetrafluorophenyl)propan-2-ylamino)-1,2-dihydropyridin-3-yl)-6,7-dihydroimidazo[4,5-f]isoindol-5(1H)-one], the IC50 was found to be 23.7 nM at ALK and 10.4 nM at TrkA.
Regarding `Cc1c2c(cc3[nH]c(-c4c(NC(C)Cc5c(F)c(F)cc(F)c5F)cc[nH]c4=O)nc13)C(=O)N(C1CCN(C)CC1)C2=O` (stereo not drawn) [Compound 29, 4-Methyl-6-(1-methylpiperidin-4-yl)-2-(2-oxo-4-(1-(2,3,5,6-tetrafluorophenyl)propan-2-ylamino)-1,2-dihydropyridin-3-yl)imidazo[4,5-f]isoindole-5,7(1H,6H)-dione], the half-maximal inhibitory concentration (IC50) at ALK came to 231 nM; on TrkA it was 165 nM.
As for `CC(Cc1cc(F)ccc1F)Nc1cc[nH]c(=O)c1-c1nc2cc3c(cc2[nH]1)C(=O)N(C(C)C)C3=O` (stereo not drawn) [Compound 36, 2-(4-((1-(2,5-Difluorophenyl)propan-2-yl)amino)-2-oxo-1,2-dihydropyridin-3-yl)-6-isopropylimidazo[4,5-f]isoindole-5,7(1H,6H)-dione], the IC50 was 1.83 µM in the series with K299 lymphoma cells, greater than 3 µM in the series with U937 lymphoma cells and 2.77 µM with SUDHL-1 lymphoma cells.
Regarding `CC(Cc1cc(F)ccc1F)Nc1cc[nH]c(=O)c1-c1nc2cc3c(cc2[nH]1)CN(C(C)C)C3=O` (stereo not drawn) [Compound 37, 2-(4-((1-(2,5-Difluorophenyl)propan-2-yl)amino)-2-oxo-1,2-dihydropyridin-3-yl)-6-isopropyl-6,7-dihydroimidazo[4,5-f]isoindol-5(1H)-one], the IC50 in the series with K299 lymphoma cells is 1.83 µM; in the series on U937 lymphoma cells it was greater than 3 µM; in the series with SUDHL-1 lymphoma cells it was 2.77 µM.
As to `Cc1ccc(F)cc1CC(C)Nc1cc[nH]c(=O)c1-c1nc2cc3c(cc2[nH]1)C(=O)N(C(C)C)C3=O` (stereo not drawn) [Compound 38, 2-(4-((1-(5-Fluoro-2-methylphenyl)propan-2-yl)amino)-2-oxo-1,2-dihydropyridin-3-yl)-6-isopropylimidazo[4,5-f]isoindole-5,7(1H,6H)-dione], the IC50 was greater than 3 µM with K299 lymphoma cells, greater than 3 µM in the series with U937 lymphoma cells and 2.8 µM in the series with SUDHL-1 lymphoma cells.
For the compound `Cc1ccc(F)cc1CC(C)Nc1cc[nH]c(=O)c1-c1nc2cc3c(cc2[nH]1)CN(C(C)C)C3=O` (stereo not drawn) [Compound 39, 2-(4-((1-(5-Fluoro-2-methylphenyl)propan-2-yl)amino)-2-oxo-1,2-dihydropyridin-3-yl)-6-isopropyl-6,7-dihydroimidazo[4,5-f]isoindol-5(1H)-one], the IC50 in the series with K299 lymphoma cells was greater than 3 µM; with U937 lymphoma cells it was greater than 3 µM; in the series on SUDHL-1 lymphoma cells it was 2.8 µM.
